The values that follow come from paper PMC11822212, “High-throughput screening identifies Aurora kinase B as a critical therapeutic target for Merkel cell carcinoma” (Nature Communications, 2025).

“And” between values parts separate entries of the source, which are not always exact repeats. Equal entries are not always repeated.

Test systems include MCC13 cells (VN-MCC); MCC26 cells (VN-MCC); UISO cells (VN-MCC); WAGA cells (VP-MCC); MKL-1 cells (VP-MCC); MKL-2 cells (VP-MCC).
What all share (test): qHTS cell viability (CellTiter-Glo, 72 h; primary and follow-up small molecule screen)
Common to all, as to format: cell-based, human
(In general: Quantitative high-throughput screening tests each substance at several concentrations.)

Consider `CCCC[C@@H](C)/C=C(C)/C=C(\C)C(=O)NC1=C[C@@](O)(/C=C/C=C/C=C/C(=O)NC2=C(O)CCC2=O)[C@@H]2O[C@@H]2C1=O` [manumycin A], for which, in the assay on MCC13 cells (VN-MCC), the “Area under the dose-response curve (AUC) MCC13 Replicate 1” value is reported as 464.3, the “Area under the dose-response curve (AUC) MCC13 Replicate 2” value came to 477.8 and the “Area under the dose-response curve (AUC) MCC13 Replicate 3” value came out at 420.7. In the assay with MCC26 cells (VN-MCC), the “Area under the dose-response curve (AUC) MCC26 Replicate 1” value was 416.4, the “Area under the dose-response curve (AUC) MCC26 Replicate 2” value is 409.7 and the “Area under the dose-response curve (AUC) MCC26 Replicate 3” value came out at 443.4. Further, in the assay with UISO cells (VN-MCC), the “Area under the dose-response curve (AUC) UISO Replicate 1” value worked out at 429.0, the “Area under the dose-response curve (AUC) UISO Replicate 2” value is 434.7 and the “Area under the dose-response curve (AUC) UISO Replicate 3” value was 408.1. In the assay on WAGA cells (VP-MCC), the “Area under the dose-response curve (AUC) WAGA Replicate 1” value is 424.6, the “Area under the dose-response curve (AUC) WAGA Replicate 2” value was 379.9 and the “Area under the dose-response curve (AUC) WAGA Replicate 3” value turned out to be 418.7. Further, in the assay on MKL-1 cells (VP-MCC), the “Area under the dose-response curve (AUC) MKL-1 Replicate 1” value is reported as 418.4, the “Area under the dose-response curve (AUC) MKL-1 Replicate 2” value is reported as 432.7 and the “Area under the dose-response curve (AUC) MKL-1 Replicate 3” value was 426.4. Further, in the assay with MKL-2 cells (VP-MCC), the “Area under the dose-response curve (AUC) MKL-2 Replicate 1” value came to 385.8, the “Area under the dose-response curve (AUC) MKL-2 Replicate 2” value amounted to 395.8 and the “Area under the dose-response curve (AUC) MKL-2 Replicate 3” value stood at 389.6.
With AZD-4547, the “Area under the dose-response curve (AUC)” value was 385.3 and 349.5 and 390.1 in the assay with MCC13 cells (VN-MCC); 311.4 and 288.0 and 307.4 in the assay on MCC26 cells (VN-MCC); 337.7 and 347.0 and 331.2 in the assay with UISO cells (VN-MCC); 425.9 and 443.6 and 367.2 with WAGA cells (VP-MCC); 362.7 and 390.5 and 360.0 in the assay on MKL-1 cells (VP-MCC); 380.8 and 390.1 and 354.8 in the assay on MKL-2 cells (VP-MCC).
Oxamflatin: the “Area under the dose-response curve (AUC)” value with MCC13 cells (VN-MCC) was 440.6 and 393.8 and 429.1; in the assay on MCC26 cells (VN-MCC), 406.5 and 378.8 and 411.0; in the assay with UISO cells (VN-MCC) it was 391.0 and 406.3 and 400.1; with WAGA cells (VP-MCC) it was 338.5 and 313.0 and 330.7; in the assay on MKL-1 cells (VP-MCC), 365.5 and 347.7 and 381.7; in the assay with MKL-2 cells (VP-MCC), 378.9 and 303.8 and 268.6.
Phenylmercuric acetate: in the assay with MCC13 cells (VN-MCC), the “Area under the dose-response curve (AUC) MCC13 Replicate 1” value is recorded as 405.8, the “Area under the dose-response curve (AUC) MCC13 Replicate 2” value came to 369.3 and the “Area under the dose-response curve (AUC) MCC13 Replicate 3” value came out at 386.0. In addition, in the assay on MCC26 cells (VN-MCC), the “Area under the dose-response curve (AUC) MCC26 Replicate 1” value is reported as 356.5, the “Area under the dose-response curve (AUC) MCC26 Replicate 2” value is given as 359.6 and the “Area under the dose-response curve (AUC) MCC26 Replicate 3” value is recorded as 374.3. Further, in the assay with UISO cells (VN-MCC), the “Area under the dose-response curve (AUC) UISO Replicate 1” value stood at 343.0, the “Area under the dose-response curve (AUC) UISO Replicate 2” value is on record as 369.6 and the “Area under the dose-response curve (AUC) UISO Replicate 3” value was determined as 334.3. Further, in the assay on WAGA cells (VP-MCC), the “Area under the dose-response curve (AUC) WAGA Replicate 1” value came out at 330.3, the “Area under the dose-response curve (AUC) WAGA Replicate 2” value was determined as 317.4 and the “Area under the dose-response curve (AUC) WAGA Replicate 3” value is listed as 331.4. In the assay on MKL-1 cells (VP-MCC), the “Area under the dose-response curve (AUC) MKL-1 Replicate 1” value is reported as 287.3, the “Area under the dose-response curve (AUC) MKL-1 Replicate 2” value worked out at 286.9 and the “Area under the dose-response curve (AUC) MKL-1 Replicate 3” value came to 280.4. In the assay with MKL-2 cells (VP-MCC), the “Area under the dose-response curve (AUC) MKL-2 Replicate 1” value is 295.2, the “Area under the dose-response curve (AUC) MKL-2 Replicate 2” value came to 271.6 and the “Area under the dose-response curve (AUC) MKL-2 Replicate 3” value is listed as 292.7.
